Each structure is given as a SMILES string. Some results are limits rather than exact numbers.

Assay [1] concerns THP-1 cells (TNFα secretion on human IgG-coated plate). Kind of assay: TNFα generation assay. The assay is classed as cell-based. The note with it: IFN-γ differentiated THP-1 cells, 7 hours, AlphaLISA, read-out: IC50 of TNFα generation inhibitory activity. Here is the method:
THP-1 cells (2×10^5 cells/ml), which were human monocytoid cells, were cultured in the presence of 10 ng/ml IFN-γ (Roche) for 2 days, and they were induced to differentiate into macrophage-like cells. The differentiation-induced THP-1 cells were recovered, and the cells (1×10^6 cell/ml) were then allowed to react with a predetermined concentration of test compound at room temperature for 30 minutes. On the other hand, 100 μl of human IgG (10 μg/ml, SIGMA-ALDRICH) diluted with PBS was added to a 96-well plate, and it was then incubated at room temperature overnight. Thereafter, the resultant was washed with PBS twice to produce a human IgG-coated plate. A cell fluid that contained a compound was plated on the obtained human IgG-coated plate (5×10^4 cells/well), and it was then cultured for 7 hours. Thereafter, the cultured solution was recovered, and the amount of TNFα secreted into the culture solution was then measured by the AlphaLISA method (PerkinElmer).
(In general: Bead proximity is the source of the signal in Alpha formats.)

The target in assay [2] is T1, glutathione S-transferase (GST)-linked full-length human Syk protein (Homo sapiens, UniProt P43405).
T1 construct: glutathione S-transferase (GST)-linked full-length human Syk protein; purchased Carna Biosciences; host or cells: Baculovirus expression system
Kind of assay: Syk enzyme assay. The assay is classed as biochemical. The note with it: 0.83 nM Syk, time-resolved fluorescence; read-out: IC50 of Syk-inhibitory activity. An outline of the steps:
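Phosphotyrosine on a biotin-peptide substrate (0.5 μM) was read by time-resolved fluorescence at 615 and 665 nm with Eu-anti-pTyr antibody and APC-streptavidin after 1 h EDTA stop.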

Regarding `COC[C@@H](Nc1nc(Nc2ccc3c(c2)c(C)nn3CC(F)F)c(C(N)=O)cc1F)[C@H](C)N` [Example 2-139, 6-(((2S,3S)-3-amino-1-methoxybutan-2-yl)amino)-2-((1-(2,2-difluoroethyl)-3-methyl-1H-indazol-5-yl)amino)-5-fluoronicotinamide], the IC50 in assay [1] was 65 to 130 nM; in assay [2] it was less than 10 nM.
In the same order, the values of `COCCn1nc(C)c2cc(Nc3nc(N[C@@H]4CCOC[C@@H]4N)c(F)cc3C(N)=O)ccc21` [Example 2-327, 6-(((3R,4R)-3-aminotetrahydro-2H-pyran-4-yl)amino)-5-fluoro-2-((1-(2-methoxyethyl)-3-methyl-1H-indazol-5-yl)amino)nicotinamide] are 130 to 200 nM and less than 10 nM.
As for `CC[C@H](N)[C@@H](C)Nc1nc(Nc2cccc3c2cnn3CCOC)c(C(N)=O)cc1F` [Example 2-311, 6-(((2R,3S)-3-aminopentan-2-yl)amino)-5-fluoro-2-((1-(2-methoxyethyl)-1H-indazol-4-yl)amino)nicotinamide], the IC50 is 130 to 200 nM in assay [1] and less than 10 nM in assay [2].
The like results for `Cc1ncc(Nc2nc(N[C@H](c3ccc(F)cc3)[C@H](C)N)c(F)cc2C(N)=O)cc1-n1nccn1` [Example 2-32, 6-(((1R,2S)-2-amino-1-(4-fluorophenyl)propyl)amino)-5-fluoro-2-((6-methyl-5-(2H-1,2,3-triazol-2-yl)pyridin-3-yl)ammo)nicotinamide] were, in that order, 130 to 200 nM and less than 10 nM.
The like results for `NC(=O)c1cc(F)c(N[C@@H]2CCCC[C@@H]2N)nc1Nc1cccc(-n2ccnn2)c1` [Example 2-438, 2-((3-(1H-1,2,3-triazol-1-yl)phenyl)amino)-6-(((1R,2S)-2-aminocyclohexyl)amino)-5-fluoronicotinamide] were, in that order, less than 65 nM and less than 10 nM.
In the same order, the values of `CC(=O)c1cccc(Nc2nc(N[C@@H]3CCCC[C@@H]3N)c(F)cc2C(N)=O)c1` [Example 2-442, 2-((3-acetylphenyl)amino)-6-(((1R,2S)-2-aminocyclohexyl)amino)-5-fluoronicotinamide] are 65 to 130 nM and less than 10 nM.
Regarding `CC[C@H](N)[C@@H](C)Nc1nc(Nc2cc(F)cc3c2cnn3CCOC)c(C(N)=O)cc1F` [Example 2-378, 6-(((2R,3S)-3-aminopentan-2-yl)amino)-5-fluoro-2-((6-fluoro-1-(2-methoxyethyl)-1H-indazol-4-yl)amino)nicotinamide], the results for the IC50 in assay [1] and in assay [2] were 65 to 130 nM and less than 10 nM, respectively.
`CC(C)C[C@H](CN)Nc1nc(Nc2cc(F)c3c(c2)c(N(C)C)nn3C)c(C(N)=O)cc1F` [Example 2-185, (R)-6-((1-amino-4-methylpentan-2-yl)amino)-2-((3-(dimethylamino)-7-fluoro-1-methyl-1H-indazol-5-yl)amino)-5-fluoronicotinamide]: the results for the IC50 in assay [1] and in assay [2] were 130 to 200 nM and less than 10 nM, respectively.
In the same order, the values of `CC(=O)c1cc(Nc2nc(N[C@@H]3CCCC[C@@H]3N)c(F)cc2C(N)=O)cnc1C` [Example 2-518, 2-((5-acetyl-6-methylpyridin-3-yl)amino)-6-(((1R,2S)-2-aminocyclohexyl)amino)-5-fluoronicotinamide] are 65 to 130 nM and less than 10 nM.
The like results for `CCn1ncc2cc(Nc3nc(N[C@H](C)[C@@H](N)C4CC4)c(F)cc3C(N)=O)ccc21` [Example 2-230, 6-(((1S,2R)-1-amino-1-cyclopropylpropan-2-yl)amino)-2-((1-ethyl-1H-indazol-1-5-yl)amino)-5-fluoronicotinamide] were, in that order, 65 to 130 nM and 10 to 50 nM.
In the same order, the values of `CCOC[C@@H](Nc1nc(Nc2cc(OC)cc(OC)c2)c(C(N)=O)cc1F)[C@H](C)N` [Example 2-268, 6-(((2S,3S)-3-amino-1-ethoxybutan-2-yl)amino)-2-((3,5-dimethoxyphenyl)amino)-5-fluoronicotinamide] are 130 to 200 nM and 10 to 50 nM.
Take `CCn1ncc2c(Nc3nc(N[C@H](C4CC4)[C@H](C)N)c(F)cc3C(N)=O)cc(F)cc21` [Example 2-372, 6-(((1R,2S)-2-amino-1-cyclopropylpropyl)amino)-2-((1-ethyl-6-fluoro-1H-indazol-4-yl)amino)-5-fluoronicotinamide]: the IC50 is 130 to 200 nM in assay [1] and less than 10 nM in assay [2].
In the same order, the values of `CCC[C@@H](Nc1nc(Nc2cnc(C)c(F)c2)c(C(N)=O)cc1F)[C@H](C)N` [Example 2-223, 6-(((2S,3R)-2-aminohexan-3-yl)amino)-5-fluoro-2-((5-fluoro-6-methylpyridin-3-yl)amino)nicotinamide] are 130 to 200 nM and less than 10 nM.
The like results for `CCn1ncc2cc(Nc3nc(N[C@H](C4CCC4)[C@H](C)N)c(F)cc3C(N)=O)ccc21` [Example 2-9] were, in that order, 65 to 130 nM and less than 10 nM.
Take `CCC[C@@H](Nc1nc(Nc2cc(F)c3c(c2)c(N(C)C)nn3C)c(C(N)=O)cc1F)[C@H](C)N` [Example 2-187, 6-(((2S,3R)-2-aminohexan-3-yl)amino)-2-((3-(dimethylamino)-7-fluoro-1-methyl-1H-indazol-5-yl)amino)-5-fluoronicotinamide]: the IC50 in assay [1] is 65 to 130 nM; in assay [2], less than 10 nM.
The like results for `COc1cc(Nc2nc(N[C@H](C3CCC3)[C@H](C)N)c(F)cc2C(N)=O)ccn1` [Example 2-5, 6-(((1R,2S)-2-amino-1-cyclobutylpropyl)amino)-5-fluoro-2-((2-methoxypyridin-4-yl)amino)nicotinamide] were, in that order, 65 to 130 nM and less than 10 nM.
The like results for `C[C@H](N)[C@H](Nc1nc(Nc2cccc3c2cnn3CC(F)F)c(C(N)=O)cc1F)C1CC1` [Example 2-75, 6-(((1R,2S)-2-amino-1-cyclopropylpropyl)amino)-2-((1-(2,2-difluoroethyl)-1H-indazol-4-yl)amino)-5-fluoronicotinamide] were, in that order, 130 to 200 nM and less than 10 nM.
On to `CC[C@H](N)[C@@H](C)Nc1nc(Nc2ccc3cnn(C)c3c2)c(C(N)=O)cc1F` [Example 2-39, 6-(((2R,3S)-3-aminopentan-2-yl)amino)-5-fluoro-2-((1-methyl-1H-indazol-6-yl)amino)nicotinamide], for which the IC50 was less than 65 nM in assay [1] and less than 10 nM in assay [2].
In the same order, the values of `COc1ncc(Nc2nc(N[C@@H]3CCOC[C@@H]3N)c(F)cc2C(N)=O)cc1-n1ccnn1` [Example 2-215, 6-(((3R,4R)-3-aminotetrahydro-2H-pyran-4-yl)amino)-5-fluoro-2-((6-methoxy-5-(1H-1,2,3-triazol-1-yl)pyridin-3-yl)amino)nicotinamide] are 130 to 200 nM and 10 to 50 nM.
The like results for `Cc1cccc(Nc2nc(N[C@@H]3CCCC[C@@H]3N)c(F)cc2C(N)=O)c1` [Example 2-434, 6-(((1R,2S)-2-aminocyclohexyl)amino)-5-fluoro-2-(m-tolylamino)nicotinamide] were, in that order, 65 to 130 nM and less than 10 nM.
Consider `CC[C@@H](Nc1nc(Nc2ccc3onc(OC)c3c2)c(C(N)=O)cc1F)[C@H](C)N` [Example 2-57, 6-(((2S,3R)-2-aminopentan-3-yl)amino)-5-fluoro-2-((3-methoxybenzo[d]isoxazol-5-yl)amino)nicotinamide], for which the IC50 in assay [1] is 65 to 130 nM; in assay [2], less than 10 nM.
In the same order, the values of `NC(=O)c1cc(F)c(N[C@@H]2CCCC[C@@H]2N)nc1Nc1cccc(-n2nccn2)c1` [Example 2-437, 2-((3-(2H-1,2,3-triazol-2-yl)phenyl)amino)-6-(((1R,2S)-2-aminocyclohexyl)amino)-5-fluoronicotinamide] are 65 to 130 nM and less than 10 nM.
In the case of `CC[C@@H](Nc1nc(Nc2ccc3c(c2)c(C)nn3CCOC)c(C(N)=O)cc1F)[C@H](C)N` [Example 2-131, 6-(((2S,3R)-2-aminopentan-3-yl)amino)-5-fluoro-2-((1-(2-methoxyethyl)-3-methyl-1H-indazol-5-yl)amino)nicotinamide], the IC50 is 65 to 130 nM in assay [1] and less than 10 nM in assay [2].
The like results for `COc1nn(C)c2ccc(Nc3nc(N[C@@H](CN)CC4CC4)c(F)cc3C(N)=O)cc12` [Example 2-79, (R)-6-((1-amino-3-cyclopropylpropan-2-yl)amino)-5-fluoro-2-((3-methoxy-1-methyl-1H-indazol-5-yl)amino)nicotinamide] were, in that order, 130 to 200 nM and less than 10 nM.
Turning to `Cc1ncc(Nc2nc(N[C@H](C3CC3)[C@H](C)N)c(F)cc2C(N)=O)cc1F` [Example 2-220, 6-(((1R,2S)-2-amino-1-cyclopropylpropyl)amino)-5-fluoro-2-((5-fluoro-6-methylpyridin-3-yl)amino)nicotinamide], the IC50 in assay [1] is 130 to 200 nM; in assay [2], 10 to 50 nM.
The like results for `CCC[C@@H](Nc1nc(Nc2ccc3c(c2)c(C)nn3CC(F)F)c(C(N)=O)cc1F)[C@H](C)N` [Example 2-138] were, in that order, less than 65 nM and less than 10 nM.

Source of the values: US9051310B2, “Nicotinamide derivative or salt thereof” (FUJIFILM Corporation, priority 2011, dated 2015).
